Assay results published in PubChem BioAssay (NCI).
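Exposure lasted 48 hours, with cells grown in 96-well plates and compounds tested at five concentrations. At the TGI there is no net growth.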

How the values were obtained:
Assay in all cases: NCI anticancer screen, dose series, 48 h
KM20L2 colon = system: KM20L2 colon
OVCAR-8 ovarian = system: OVCAR-8 ovarian
HS 578T breast = system: HS 578T breast
LXFL 529 NSCLC = system: LXFL 529 NSCLC
OVCAR-3 ovarian = system: OVCAR-3 ovarian
HOP-92 NSCLC = system: HOP-92 NSCLC
UO-31 renal = system: UO-31 renal
NCI-H23 lung = system: NCI-H23 lung
SNB-78 CNS = system: SNB-78 CNS
SF-295 CNS = system: SF-295 CNS

SMILES | TGI (KM20L2 colon) | TGI (OVCAR-8 ovarian) | TGI (HS 578T breast) | TGI (LXFL 529 NSCLC) | TGI (OVCAR-3 ovarian) | TGI (HOP-92 NSCLC) | TGI (UO-31 renal) | TGI (NCI-H23 lung) | TGI (SNB-78 CNS) | TGI (SF-295 CNS)
Nc1ccc(C(=O)N/C(=C\c2cccc([N+](=O)[O-])c2)c2nc3[nH]c(=S)[nH]c(=O)c3[nH]2)cc1 | > 100 µM | > 90.3 µM | > 91.2 µM | > 100 µM | > 100 µM | 64.9 µM | > 100 µM | > 100 µM | > 100 µM | > 96.7 µM
CCOC(=O)Oc1cc2c(c(OC)c1OC)-c1ccc(OC)c(=O)cc1C(NC(C)=O)CC2 (centres undefined) | 0.0866 µM | 19.7 µM | > 100 µM | > 100 µM | 0.135 µM | 28.7 µM | > 100 µM | 8.82 µM | > 100 µM | 3.09 µM
CC1=C(C(=O)Nc2ccccc2)C(c2cccc3ccccc23)C(C(=O)Nc2ccccc2)=C(C)N1 | 36.2 µM | 35.8 µM | – | 34.4 µM | 26.4 µM | 58.8 µM | 52.8 µM | 52.5 µM | 94.3 µM | 46.6 µM
